The record followed here is paper PMC7170330 (Journal of Enzyme Inhibition and Medicinal Chemistry, 2020).

A word on the Ki: it is a dissociation constant, usually derived from enzyme kinetics or from competition with a known ligand.

Experiment [1] can be described thus: DPPH free radical scavenging activity. The conditions noted are these: 0.05 mg/mL; mean ± SD, n = 3. The method, then:
The free radical scavenging activity of standard antioxidants and synthesised sulphonamide derivatives was measured by DPPH using the Blois method[49]^,[50] 0.1 mM solution of DPPH^• in ethanol was prepared and 1 ml of this solution was added to 3 ml of the samples solution in ethanol at different concentrations. These solutions were vortexed thoroughly and kept in the darkness for 30 min. The absorbance values of this final mixture were measured at 517 nm. The reduced absorbance of the reaction mixture indicates higher free radical scavenging activity.
(§1) ABTS^•+ scavenging activity assay was performed according to Re method[51]^,[52]. The process of ABTS^•+ (2.0 mM) in water with potassium persulfate (K2S2O8) (2.45 mM) at room temperature in dark for 4 h. gave the ABTS cation radical. Dilution of ABTS^•+ was applied with sodium phosphate buffer (Na3PO4) (0.1 mol/l, pH 7.4) to measure the absorbance at 734 nm. The reactions of ABTS^•+ solution (1.0 ml) with samples solution in ethanol at different concentrations were performed. The inhibition was calculated at 734 nm for each concentration. The DPPH^• and ABTS^•+ free radical scavenging ability was calculated as the following equation: Radical scavenging activity (%) = [(Ac – As)/Ac] × 100. Where, Ac is the absorbance value of DPPH^• and ABTS^•+ before sample addition, while as is the absorbance value after sample addition.
(DPPH is a stable violet radical that fades when it is reduced.)

Experiment [2] in a line: ABTS radical cation scavenging activity. The conditions noted are these: 0.2 mg/mL; mean ± SD, n = 3. As for the experimental part:
as §1

Experiment [3] in a line: Fe3+ reducing power (FRAP, modified Oyaizu method). The settings on record: 0.2 mg/mL; 700 nm; mean ± SD, n = 3. As for the experimental part:
The power by metal-reducing of novel synthesised sulphonamide derivatives were determined by modified Oyaizu method[45]^,[46]. Different amounts of derivatives in 1 ml of ethanol were mixed with 0.5 ml of phosphate buffer (0.2 M, pH 6.6) and 0.5 ml of 1% potassium ferricyanide (K3Fe(CN)6). After the mixtures were incubated at 50 °C for 20 min, trichloroacetic acid (0.5 ml, 10%) was added to each mixture and centrifuged (at 1,008 G for 10 min.). The upper layers of the resulting solutions (0.5 ml) were first mixed with distilled water (0.5 ml) and then FeCl3 (0.1 ml, 0.1%) in the given order. absorbances were measured at 700 nm.

The nature of experiment [4]: Cupric ion reducing assay (CUPRAC). The settings on record: 0.2 mg/mL; mean ± SD, n = 3. As for the experimental part: The reduction capacity for cupric ions (Cu^2+) was determined by Cupric Ions Reducing Assay (CUPRAC) assay as previously described[47]^,[48]. A volume of 0.25 ml neocuproine (7.5 mM) in ethanol, 0.25 ml NH4Ac (1 M) and 0.25 ml CuCl2 (0.01 M) was mixed with sample at different amounts and standards.

Experiment [5] concerns the target hCA I (Homo sapiens, UniProt P00915). The experiment in a line: biochemical. The conditions noted are these: esterase activity, p-nitrophenylacetate substrate, Lineweaver-Burk, mean ± SD.
Experiment [6] concerns the target hCA II (Homo sapiens, UniProt P00918). The experiment in a line: hCA II esterase activity inhibition (p-nitrophenylacetate). In kind it is biochemical. The conditions noted are these: for Ki: esterase activity, p-nitrophenylacetate substrate, Lineweaver-Burk, mean ± SD; for Selectivity index KI (hCA II/hCA I): ratio of KI values.
For experiment [7], the target named is T1, AChE (Electrophorus electricus, UniProt O42275).
T1 construct: AChE activity isolated from electric eel (purchased); purchased; host or cells: isolated from electric eel
T1 sequence (O42275 24-633): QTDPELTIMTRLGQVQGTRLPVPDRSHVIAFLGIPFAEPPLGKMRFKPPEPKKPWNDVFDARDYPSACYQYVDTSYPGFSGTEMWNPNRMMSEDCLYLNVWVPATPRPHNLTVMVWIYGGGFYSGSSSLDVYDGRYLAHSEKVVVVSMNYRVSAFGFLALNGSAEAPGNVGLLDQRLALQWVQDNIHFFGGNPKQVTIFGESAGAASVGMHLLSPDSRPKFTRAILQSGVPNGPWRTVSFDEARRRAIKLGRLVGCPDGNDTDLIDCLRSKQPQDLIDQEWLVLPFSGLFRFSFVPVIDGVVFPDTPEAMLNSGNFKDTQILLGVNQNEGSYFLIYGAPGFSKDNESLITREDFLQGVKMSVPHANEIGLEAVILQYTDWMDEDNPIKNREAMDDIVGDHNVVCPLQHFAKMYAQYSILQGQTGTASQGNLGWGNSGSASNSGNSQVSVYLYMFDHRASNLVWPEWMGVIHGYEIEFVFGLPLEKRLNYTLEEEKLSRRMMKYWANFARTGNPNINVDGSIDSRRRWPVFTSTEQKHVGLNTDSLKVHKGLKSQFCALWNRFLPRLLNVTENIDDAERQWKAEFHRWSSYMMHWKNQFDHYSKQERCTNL
In words: biochemical. The conditions noted are these: electric eel AChE, acetylthiocholine iodide/DTNB, 412 nm, mean ± SD.
Experimental: AChE activity isolated from electric eel (purchased) was performed by a modified version of the Ellman method[63]. The measurement of AChE activity was performed using Acetylthiocholine (ATChI) iodide as the substrates and 5,5-Dithiobis(2-nitrobenzoic) acid (DTNB)[64]. The ATChI iodide as the substrates was monitored spectrophotometrically at 412 nm as in our previous assays[65]^,[66].

“And” between values parts separate entries of the source, which are not always exact repeats. Equal values may be shown once. Read-outs that look alike come from different tables or passages of the source.

Sequence of hCA I (P00915 whole entry): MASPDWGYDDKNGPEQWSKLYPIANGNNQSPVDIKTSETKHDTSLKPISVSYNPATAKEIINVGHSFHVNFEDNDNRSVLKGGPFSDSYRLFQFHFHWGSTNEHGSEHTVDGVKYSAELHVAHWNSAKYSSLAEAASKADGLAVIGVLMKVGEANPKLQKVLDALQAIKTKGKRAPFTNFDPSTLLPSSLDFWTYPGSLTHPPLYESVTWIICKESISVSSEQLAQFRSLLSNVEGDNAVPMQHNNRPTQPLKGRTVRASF

As for `COc1ccc(O)c(C(C)(C)C)c1` [BHA, butylated hydroxyanisole, reference compound], the “DPPH radical scavenging activity” value in experiment [1] came out at 21.7 ± 1.9%. Moreover, the “ABTS radical scavenging activity” value in experiment [2] was 79.5 ± 6.1%. In experiment [3], the “Fe3+ reducing ability” value came to 1.23 ± 0.20 absorbance. Further, in experiment [4], the “Cu2+ reducing ability” value is reported as 2.28 ± 0.13 absorbance.
Taken in the same sequence, the figures for `Cc1cc(C(C)(C)C)c(O)c(C(C)(C)C)c1` [BHT, butylated hydroxytoluene, reference compound] were 47.0 ± 5.2%, 98.9 ± 9.1%, 0.67 ± 0.01 absorbance and 2.00 ± 0.11 absorbance.
As to `NS(=O)(=O)c1cccc(N=Cc2cccc(Br)c2O)c1` [Compound 1, 3-((3-Bromo-2-hydroxybenzylidene)amino)benzenesulfonamide], the Ki in experiment [5] (read-out: KI hCA I) came to 59.7 ± 0.1 nM; in experiment [6] (read-out: KI hCA II), 16.4 ± 0.7 nM; in experiment [7] (read-out: KI AChE), 24.3 ± 1 nM. In addition, in experiment [6], the “Selectivity index KI (hCA II/hCA I)” value is listed as 0.27. The “DPPH radical scavenging activity” value in experiment [1] was found to be 18.7 ± 1.5%. The “ABTS radical scavenging activity” value in experiment [2] is recorded as 18.4 ± 2.0%. Moreover, the “Fe3+ reducing ability” value in experiment [3] was determined as 0.15 ± 0.03 absorbance. Moreover, the “Cu2+ reducing ability” value in experiment [4] was 0.22 ± 0.02 absorbance.
Regarding `NS(=O)(=O)c1cccc(N=Cc2cccc(Cl)c2O)c1` [Compound 2, 3-((3-Chloro-2-hydroxybenzylidene)amino)benzenesulfonamide], the Ki in experiment [5] (read-out: KI hCA I) is 66.6 nM and 66.5 nM; in experiment [6] (read-out: KI hCA II), 13.8 ± 0.1 nM; in experiment [7] (read-out: KI AChE), 21 nM. In experiment [6], the “Selectivity index KI (hCA II/hCA I)” value is given as 0.21. Besides, the “DPPH radical scavenging activity” value in experiment [1] was determined as 8.2 ± 0.4%. Further, in experiment [2], the “ABTS radical scavenging activity” value is listed as 15.1 ± 1.4%. Also, the “Fe3+ reducing ability” value in experiment [3] is listed as 0.27 ± 0.02 absorbance. Moreover, the “Cu2+ reducing ability” value in experiment [4] is 0.26 ± 0.04 absorbance.
For the compound `NS(=O)(=O)c1ccc(N=Cc2cccc(Br)c2O)cc1` [Compound 3, 4-((3-Bromo-2-hydroxybenzylidene)amino)benzenesulfonamide], the Ki was 80.5 ± 1.5 nM in experiment [5] (read-out: KI hCA I), 26.3 ± 0.09 nM in experiment [6] (read-out: KI hCA II) and 34.9 ± 1.4 nM in experiment [7] (read-out: KI AChE). For the same compound, the “Selectivity index KI (hCA II/hCA I)” value in experiment [6] is 0.33. Also, in experiment [1], the “DPPH radical scavenging activity” value was 5.9 ± 0.4%. The “ABTS radical scavenging activity” value in experiment [2] is 7.3 ± 0.6%. For the same compound, the “Fe3+ reducing ability” value in experiment [3] is given as 0.11 ± 0.01 absorbance. In experiment [4], the “Cu2+ reducing ability” value is 0.28 ± 0.04 absorbance.
As to `NS(=O)(=O)c1ccc(N=Cc2cccc(Cl)c2O)cc1` [Compound 4, 4-((3-Chloro-2-hydroxybenzylidene)amino)benzenesulfonamide], the Ki in experiment [5] (read-out: KI hCA I) turned out to be 40.1 ± 0.6 nM; in experiment [6] (read-out: KI hCA II), 79.3 ± 0.2 nM; in experiment [7] (read-out: KI AChE) it was 27.9 ± 1.3 nM. In addition, the “Selectivity index KI (hCA II/hCA I)” value in experiment [6] stood at 1.98. Further, the “DPPH radical scavenging activity” value in experiment [1] came out at 12.7 ± 0.9%. Also, the “ABTS radical scavenging activity” value in experiment [2] came to 14.7 ± 0.9%. Moreover, the “Fe3+ reducing ability” value in experiment [3] came out at 0.33 ± 0.02 absorbance. The “Cu2+ reducing ability” value in experiment [4] came out at 0.24 ± 0.05 absorbance.
With `NS(=O)(=O)c1cccc(NCc2cccc(Br)c2O)c1` [Compound 5, 3-((3-Bromo-2-hydroxybenzyl)amino)benzenesulfonamide], the figures for the inhibition constant Ki in experiment [5] (read-out: KI hCA I), in experiment [6] (read-out: KI hCA II) and in experiment [7] (read-out: KI AChE) were 52.1 ± 0.7 nM, 19.8 ± 1.2 nM and 61.2 ± 4 nM, respectively. The “Selectivity index KI (hCA II/hCA I)” value in experiment [6] turned out to be 0.38. Further, in experiment [1], the “DPPH radical scavenging activity” value amounted to 1.9 ± 0.09%. Also, in experiment [2], the “ABTS radical scavenging activity” value amounted to 76.8 ± 8.1%. In addition, the “Fe3+ reducing ability” value in experiment [3] worked out at 0.33 ± 0.03 absorbance. Moreover, the “Cu2+ reducing ability” value in experiment [4] is on record as 0.99 ± 0.07 absorbance.
Take `NS(=O)(=O)c1cccc(NCc2cccc(Cl)c2O)c1` [Compound 6, 3-((3-Chloro-2-hydroxybenzyl)amino)benzenesulfonamide]: the Ki was found to be 101 ± 1.9 nM in experiment [5] (read-out: KI hCA I), 29.1 ± 0.3 nM in experiment [6] (read-out: KI hCA II) and 25.7 ± 1 nM in experiment [7] (read-out: KI AChE). Also, the “Selectivity index KI (hCA II/hCA I)” value in experiment [6] was 0.29. Besides, in experiment [1], the “DPPH radical scavenging activity” value is given as 9.2 ± 0.6%. Further, the “ABTS radical scavenging activity” value in experiment [2] was determined as 77.7 ± 7.9%. In addition, the “Fe3+ reducing ability” value in experiment [3] is 0.47 ± 0.06 absorbance. Further, in experiment [4], the “Cu2+ reducing ability” value is 0.93 ± 0.07 absorbance.
For `NS(=O)(=O)c1ccc(NCc2cccc(Br)c2O)cc1` [Compound 7, 4-((3-Bromo-2-hydroxybenzyl)amino)benzenesulfonamide], the Ki turned out to be 62.3 nM in experiment [5] (read-out: KI hCA I), 10.1 nM in experiment [6] (KI hCA II) and 77 ± 9.3 nM in experiment [7] (KI AChE). The “Selectivity index KI (hCA II/hCA I)” value in experiment [6] came to 0.16. Besides, the “DPPH radical scavenging activity” value in experiment [1] is given as 4.2 ± 0.4%. In addition, the “ABTS radical scavenging activity” value in experiment [2] is given as 74.5 ± 6.4%. Besides, in experiment [3], the “Fe3+ reducing ability” value amounted to 0.39 ± 0.04 absorbance. Besides, in experiment [4], the “Cu2+ reducing ability” value came out at 1.15 ± 0.08 absorbance.
Turning to `NS(=O)(=O)c1ccc(NCc2cccc(Cl)c2O)cc1` [Compound 8, 4-((3-Chloro-2-hydroxybenzyl)amino)benzenesulfonamide], the Ki is 32.1 nM in experiment [5] (KI hCA I); 62 nM and 61.9 nM in experiment [6] (read-out: KI hCA II); 31.4 ± 1.2 nM in experiment [7] (KI AChE). In experiment [6], the “Selectivity index KI (hCA II/hCA I)” value came out at 1.93. For the same compound, the “DPPH radical scavenging activity” value in experiment [1] was determined as 3.2 ± 0.6%. The “ABTS radical scavenging activity” value in experiment [2] was 78.4 ± 7.7%. Moreover, in experiment [3], the “Fe3+ reducing ability” value is given as 0.33 ± 0.07 absorbance. In addition, the “Cu2+ reducing ability” value in experiment [4] is given as 0.80 ± 0.05 absorbance.
On to `Cc1c(C)c2c(c(C)c1O)CCC(C)(C(=O)O)O2` (stereo not shown) [Trolox, reference compound], for which the “DPPH radical scavenging activity” value in experiment [1] was 57.8 ± 6.8%. Moreover, the “ABTS radical scavenging activity” value in experiment [2] was 94.4 ± 9.0%. Moreover, the “Fe3+ reducing ability” value in experiment [3] is listed as 1.27 ± 0.12 absorbance. The “Cu2+ reducing ability” value in experiment [4] was determined as 1.81 ± 0.05 absorbance.
